Results: patent US8795632B2, “Disease animal model for chronic pain” (Astellas Pharma Inc., priority 2008, dated 2014)

Legend:
Sprague-Dawley rats [1] = assay: Forced swimming test (immobility time) after repeated administration of reserpine; type: in vivo, rat; details: reserpine 1 mg/kg s.c. once a day for 3 days
Experimental: Male Sprague-Dawley rats (7 weeks old, Japan SLC, Hamamatsu, Japan) were used as the animal. The forced swimming test was carried out by modifying the method of Porsolt et al. (1977) in the following manner. A soft wire equipped with a magnet (1 mm in diameter, 3 mm in length) was attached to both forelimbs of each animal, and the animal was allowed to swim in a cylindrical plastic water bath (20 cm in diameter, 45 cm in height) filled with water (24±1° C.) to a depth of 30 cm. In this test, the immobility time of each animal was measured using a forced swimming automatic measuring device (MicroAct Scratching Test version 1.06; Neuroscience, Tokyo, Japan) which detects movement of the forelimbs equipped with the magnet, through a coil around the cylinder.
Influence of reserpine upon the immobility time in the forced swimming test was examined in accordance with the following protocol. […] All of the measured values were expressed as average value±standard error. Statistical difference of the measured values between the reserpine administration groups and the vehicle administration group in each test schedule was carried out by the Student's t-test. Probability value (P) of less than 5% was judged as statistically significant (P<0.05 was expressed as * in the graphs).

Sprague-Dawley rats [2] = assay: Skin pain sensation threshold value (von Frey filaments) after repeated administration of reserpine; type: in vivo, rat; details: for time after reserpine final administration until which skin pain sensation threshold value was statistically significantly low vs solvent group: reserpine 1 mg/kg s.c. once a day for 3 days
Experimental: Measurement of muscle pressure pain threshold value was carried out in accordance with the method of Schafers et al. (Schafers M. et al., Pain, 104, 579-588, 2003). A pressure stimulus of gradually increasing to 250 g at the maximum was added to the rat right hind leg gastrocnemius muscle. […] The measurement was carried out 3 times at each point of time of the measurement, and the average was used as the measurement value. Measurement of the skin pain sensation threshold value was carried out in accordance with the method of Chaplan et al. (Chaplan et al., J. Neurosci. Methods, 53, 55-63, 1994). This was measured using a series of von Frey filaments having different diameters which may add a constant pressure. […] The von Frey filament was applied using the up and down method. That is, by firstly applying a filament of middle diameter, a filament having one rank smaller diameter was applied when the withdrawal reaction was observed or a filament having one rank larger diameter was applied when the withdrawal reaction was not observed. The skin pain sensation threshold value at each point of time of the measurement was calculated as a hind paw withdrawal reaction threshold value (g) using the calculation formula reported by Chaplan et al. (Chaplan et al., described above). Influences of reserpine upon the muscle pressure pain threshold value and skin pain sensation threshold value were examined by the following protocol. A total of 24 animals for each of male and female rats were used. After measuring muscle pressure pain threshold value and skin pain sensation threshold value before the reserpine treatment (base line), they were divided based on the reserpine administration doses into a solvent (0.5% acetic acid aqueous solution) group, a reserpine 0.1 mg/kg group, a 0.3 mg/kg group and a 1 mg/kg group (the number of animals per one group was 6). The solvent or reserpine was subcutaneously administered on the back of the rats of each group once a day for 3 days. All of the administration volume of the solvent or reserpine was set to 1 ml per 1 kg body weight of each animal. After final administration of the solvent or reserpine, the muscle pressure pain threshold value and skin pain sensation threshold value of each rat were measured 1, 3, 5, 7, 10, 14 and 21 days thereafter.
All of the measured values were expressed as average value±standard error. Statistical significance test of the measured values between the reserpine administration groups and the solvent administration group at each point of time was carried out by a two-way analysis of variance and the Bonferroni method. Probability value (P) of less than 5% was judged as statistically significant (P<0.05 was expressed as * in the graphs).

COC(=O)[C@H]1[C@H]2C[C@@H]3c4[nH]c5cc(OC)ccc5c4CCN3C[C@H]2C[C@@H](OC(=O)c2cc(OC)c(OC)c(OC)c2)[C@@H]1OC [reserpine]
immobility time in forced swimming test vs vehicle administration group (Sprague-Dawley rats [1]; after 3, 5, 7 and 14 days of the final administration (P=0.0007, P=0.004, P<0.0001, P=0.0008)): significant increase | immobility time in forced swimming test vs vehicle administration group (Sprague-Dawley rats [1]; after 1 day of the final administration (P=0.625, Student's t-test)): Significant increase in the immobility time by the reserpine administration was not found | time after reserpine final administration until which skin pain sensation threshold value was statistically significantly low vs solvent group (Sprague-Dawley rats [2]; female rats): 14 days | skin pain sensation threshold value (Sprague-Dawley rats [2]; male and female rats, reserpine 0.1, 0.3, 1 mg/kg s.c. once a day for 3 days, two-way analysis of variance vs solvent): significantly reduced | time after reserpine final administration until which skin pain sensation threshold value was statistically significantly low vs solvent group (Sprague-Dawley rats [2]; male rats): 21 days | skin pain sensation threshold value (Sprague-Dawley rats [2]; reserpine 1 mg/kg group, s.c. once a day for 3 days): markedly reduced
